Laboratory results taken from patent US9056096B2, “Hyaluronic acid decomposition-promoting factor and inhibitor thereof” (Kao Corporation, priority 2010, dated 2015).

What was measured:
[1] = test system: KIAA1199/HEK293 cells; experiment: Inhibitor experiment: [3H]HA decomposition in HEK293 cells stably expressing KIAA1199; format: cell-based, human; conditions: preliminary treatment with inhibitor 3 hours, then 6 hours with [3H]HA
Method: Cells were cultured in a medium containing [^3H]HA (40,000 dpm/mL) to confluent. […] The medium was eluted with 0.5% NaCl at 0.65 mL/min, and fractions (each 2.55 mL) were collected. The radioactivity of each fraction was measured.
Cells were cultured in a medium containing G418, and stable transformants were selected.
Cells were incubated for 3 hours with an inhibitor at a predetermined concentration and then incubated for 6 hours with [^3H]HA in the presence of the inhibitor.
In order to investigate the hyaluronic acid decomposition mechanism by the mediation of KIAA1199, HEK293 cells (KIAA1199/HEK293), in which KIAA1199 is consistently expressed, were established.

[2] = test system: cultured normal human skin fibroblasts (Detroit551); experiment: [3H]HA decomposition assay using cultured normal human skin fibroblasts; format: cell-based; conditions: for decomposition of hyaluronic acid by cultured fibroblasts: exogenously added [3H]HA, substance added to the culture
Method: Normal human skin fibroblasts (Detroit 551, ATCC (American Type Culture Collection), HS-27, NHDF) were cultured in an Eagle's minimal essential medium (MEM) (MP Biomedicals, Solon, Ohio) supplemented with essential amino acids, 1 mM sodium pyruvate, and 10% (vol/vol) fetal bovine serum (FBS) (JRH Biosciences, Kansas). HEK293, COS-7 cells, and human synovial fibroblasts (TOYOBO) were maintained in a Dulbecco's modified Eagle's medium (Sigma) containing 10% fetal bovine serum, 100-units/mL penicillin, and 100-μg/mL streptomycin. Culturing was performed at 37° C. in a humidified atmosphere containing 5% CO2.
[^3H]-labeled hyaluronic acid ([^3H]HA) was prepared though a slightly modified method of Underhill, Toole, et al. (C. B. Underhill and B. P. Toole, Binding of hyaluronate to the surface of cultured cells. J. Cell Biol. 82 (1979) 475-84). Specifically, confluent Detroit 551 fibroblasts were incubated with D-[1,6-^3H(N)]glucosamine hydrochloride (10-μCi/mL). A conditioned medium was pooled, and the incubated cells were digested with pronase (0.3 mg/mL) and precipitated in ethanol. The formed pellets were suspended in water and re-precipitated with 1.5% cetylpyridinium chloride and 0.03M NaCl. The thus-formed pellets were dissolved in 0.1% cetylpyridinium chloride and 0.4M NaCl and re-precipitated again in ethanol. The thus-formed pellets were suspended in 5 mM phosphate buffer (pH: 7.5), and the suspension was applied to a Sepharose CL-2B column (10×600 mm) equilibrated with 0.5% NaCl. Vo fractions were collected, and the product was precipitated in ethanol. Finally, the product was dissolved in 5 mM phosphate buffer (pH: 7.5).
Cells were cultured in a medium containing [^3H]HA (40,000 dpm/mL) to confluent. After incubation, the medium was removed and applied to a Sepharose CL-2B column (10×600 mm). The medium was eluted with 0.5% NaCl at 0.65 mL/min, and fractions (each 2.55 mL) were collected. The radioactivity of each fraction was measured.
siRNAs (TT2 cohesive end, non-modified) each having 25 nucleotides with respect to KIAA1199, HYAL2, CD44, and a negative control were purchased from Invitrogen (Carlsbad, Calif.). Each siRNA was incorporated by use of Lipofectamine RNAiMAX (Invitrogen, Carlsbad, Calif.).

[3] = test system: KIAA1199 mRNA; experiment: Induction of KIAA1199 mRNA expression in cultured RA synovial cells; format: cell-based, human; conditions: inflammatory mediator added to cultured RA synovial cells
Method: (§1) Western blotting was performed through a standard method. In real-time PCR, total RNA was separated by use of RNeasy (Qiagen), and cDNA was synthesized by means of High Capacity cDNA Archive kit (Applied Biosystems, Foster City, Calif.).
Meanwhile, PGE2 (i.e., an inflammatory mediator) and several cytokines such as IL-1, IL-6, and TNF-α are present at high levels in synovial fluid of RA patients. Therefore, whether or not expression of KIAA1199 in RA synovial cells is induced by such an inflammatory mediator was investigated.

[4] = test system: KIAA1199 mRNA; conditions: stimulation with histamine
Method: as §1, with “Calif.). Real-time PCR was performed through TaqMan (registered trademark) technique and by means of an apparatus ABI Prism 7700 (Applied Biosystems, Foster City, Calif.).” for “Calif.).”

[5] = after stimulation with histamine

CC[C@@]1([C@@H]2O[C@@H]([C@H]3O[C@@](O)(CO)[C@H](C)C[C@@H]3C)C[C@@H]2C)CC[C@H]([C@]2(C)CC[C@]3(C[C@H](O)[C@@H](C)[C@@H]([C@@H](C)[C@@H](OC)[C@H](C)C(=O)O)O3)O2)O1 [monensin]
decomposition of hyaluronic acid in KIAA1199/HEK293 cells [1]: inhibited

CO/C1=C\C(C)=C\[C@@H](C)[C@@H](O)[C@@H](C)C/C(C)=C/C=C/[C@H](OC)[C@@H]([C@@H](C)[C@@H](O)[C@H](C)[C@@]2(O)C[C@@H](O)[C@H](C)[C@@H](C(C)C)O2)OC1=O [bafilomycin A1]
decomposition of hyaluronic acid in KIAA1199/HEK293 cells [1]: inhibited

heparin
decomposition of hyaluronic acid by cultured fibroblasts [2]: inhibited

TGF-[3]: TGF-β1, down-regulates hyaluronic acid decomposition in fibroblasts
decomposition of hyaluronic acid by cultured fibroblasts [2]: down-regulated

IL-6: cytokine, RA-related inflammatory mediator
expression of KIAA1199 mRNA in RA synovial cells [3]: stimulate expression

CCN1C(=O)C=CC1=O [N-ethylmaleimide]
decomposition of hyaluronic acid in KIAA1199/HEK293 cells [1]: inhibited

O=C(O)CN(CCN(CC(=O)O)CC(=O)O)CC(=O)O [EDTA]
decomposition of hyaluronic acid in KIAA1199/HEK293 cells [1]: inhibited

O=c1cc(-c2ccc(O)c(O)c2)oc2c([C@@H]3O[C@H](CO)[C@@H](O)[C@H](O)[C@H]3O)c(O)cc(O)c12 [orientin]
decomposition of hyaluronic acid in KIAA1199/HEK293 cells [1]: inhibited

CN(C)CCCN1c2ccccc2Sc2ccc(Cl)cc21 [chlorpromazine]
decomposition of hyaluronic acid in KIAA1199/HEK293 cells [1]: inhibited

IL-β: cytokine, RA-related inflammatory mediator (probably IL-1β)
expression of KIAA1199 mRNA in RA synovial cells [3]: stimulate expression

NCCc1c[nH]cn1 [histamine]
increase in expression level of KIAA1199 mRNA [4]: 3.7 times | Vmax of hyaluronic acid decomposition by cells [2, 5]: 1,370 μg/10^5 cells/3 days | apparent Km of hyaluronic acid decomposition by cells [2, 5]: 1,500 μg/mL | increase of Vmax of hyaluronic acid decomposition ([2]; after stimulation with histamine, versus unstimulated cells): 3.7 times | decomposition of hyaluronic acid by cultured fibroblasts [2]: up-regulated

CCCCC[C@H](O)/C=C/[C@H]1[C@H](O)CC(=O)[C@@H]1C/C=C\CCCC(=O)O [PGE2, prostaglandin E2]
expression of KIAA1199 mRNA in RA synovial cells [3]: stimulate expression

B1: IL-1α: cytokine, RA-related inflammatory mediator (protein, UniProt P01583 113-271, looked up)
Interleukin-1 alpha: SAPFSFLSNVKYNFMRIIKYEFILNDALNQSIIRANDQYLTAAALHNLDEAVKFDMGAYKSSKDDAKITVILRISKTQLYVTAQDEDQPVLLKEMPEIPKTITGSETNLLFFWETHGTKNYFTSVAHPNLFIATKQDYWVCLAGGPPSITDFQILENQA
expression of KIAA1199 mRNA in RA synovial cells [3]: stimulate expression
